Assay results: PubChem BioAssay AID2060902 (Molecular Pharmacology Branch, DTP, NCI, 2025)

Test system: 485368-065-R3-J5-PDC spheroids with HUVEC/MSC, viability
Assay: Anticancer human tumor 485368-065-R3-J5-PDC patient-derived pancreatic carcinoma cell line growth inhibition [RAS]
Conditions: for IC50: curve of first compound; for viability, T/C: stronger effect = lower value; active means viability on the fitted dose curve at most 10% of control; inactive means the rest
Procedure, shortened: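 Agents were tested in combination matrices in half-log decrements from a top concentration at or near clinical Cmax (10 microM if undetermined). Targets were multi-cell spheroids of tumour lines plus HUVEC and MSC stromal cells.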
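Further: spheroids exposed to agents for seven days before readout.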

CCc1c2c(nc3ccc(O)cc13)-c1cc3c(c(=O)n1C2)COC(=O)[C@]3(O)CC + C#Cc1c(F)ccc2cc(O)cc(-c3ncc4c(N5CC6CCC(C5)N6)nc(OCC56CCCN5CC(F)C6)nc4c3F)c12
< 0.949 nM: IC50 (second compound 10 µM)
2.01 nM: IC50 (second compound 0.0316 µM)
inactive: viability, T/C (second compound 0.0316 µM, first compound 0.000949 µM) 79.6% | viability, T/C (second compound 0.0316 µM, first compound 0.003 µM) 34% | viability, T/C (second compound 0.0316 µM, first compound 0.00949 µM) 14.3% | viability, T/C (second compound 0.1 µM, first compound 0.000949 µM) 82.5% | viability, T/C (second compound 0.1 µM, first compound 0.003 µM) 33.7% | viability, T/C (second compound 0.1 µM, first compound 0.00949 µM) 12.5% | viability, T/C (second compound 0.316 µM, first compound 0.000949 µM) 82.5% | viability, T/C (second compound 0.316 µM, first compound 0.003 µM) 33.4% | viability, T/C (second compound 0.316 µM, first compound 0.00949 µM) 13.3% | viability, T/C (second compound 1 µM, first compound 0.000949 µM) 91.2% | viability, T/C (second compound 1 µM, first compound 0.003 µM) 33.6% | viability, T/C (second compound 1 µM, first compound 0.00949 µM) 14.8% | viability, T/C (second compound 3.16 µM, first compound 0.000949 µM) 71.5% | viability, T/C (second compound 3.16 µM, first compound 0.003 µM) 26.7% | viability, T/C (second compound 3.16 µM, first compound 0.00949 µM) 12.9% | viability, T/C (second compound 10 µM, first compound 0.000949 µM) 28.2% | viability, T/C (second compound 10 µM, first compound 0.003 µM) 19.4% | viability, T/C (second compound 10 µM, first compound 0.00949 µM) 11.2%
1.66 nM: IC50 (second compound 3.16 µM)
2.19 nM: IC50 (second compound 1 µM)
2.04 nM: IC50 (second compound 0.1 µM) | IC50 (second compound 0.316 µM)
active: viability, T/C (second compound 0.0316 µM, first compound 0.03 µM) 7.01% | viability, T/C (second compound 0.0316 µM, first compound 0.0949 µM) 5.19% | viability, T/C (second compound 0.0316 µM, first compound 0.3 µM) 2.88% | viability, T/C (second compound 0.1 µM, first compound 0.03 µM) 7.37% | viability, T/C (second compound 0.1 µM, first compound 0.0949 µM) 4.36% | viability, T/C (second compound 0.1 µM, first compound 0.3 µM) 3.26% | viability, T/C (second compound 0.316 µM, first compound 0.03 µM) 5.82% | viability, T/C (second compound 0.316 µM, first compound 0.0949 µM) 5.07% | viability, T/C (second compound 0.316 µM, first compound 0.3 µM) 3.14% | viability, T/C (second compound 1 µM, first compound 0.03 µM) 6.95% | viability, T/C (second compound 1 µM, first compound 0.0949 µM) 4.29% | viability, T/C (second compound 1 µM, first compound 0.3 µM) 3.15% | viability, T/C (second compound 3.16 µM, first compound 0.03 µM) 7.69% | viability, T/C (second compound 3.16 µM, first compound 0.0949 µM) 4.04% | viability, T/C (second compound 3.16 µM, first compound 0.3 µM) 2.84% | viability, T/C (second compound 10 µM, first compound 0.03 µM) 5.94% | viability, T/C (second compound 10 µM, first compound 0.0949 µM) 3.93% | viability, T/C (second compound 10 µM, first compound 0.3 µM) 3.41%

CCC(CC)c1cc(NC2CCC(N)C2)n2nccc2n1 (centres undefined) + CCn1c(-c2cc(N3CCN(C)CC3)cnc2C(C)OC)c2c3cc(ccc31)-c1csc(n1)CC(NC(=O)C1CC1C)C(=O)N1CCCC(N1)C(=O)OCC(C)(C)C2
inactive: viability, T/C (second compound 0.000949 µM, first compound 0.0316 µM) 42% | viability, T/C (second compound 0.000949 µM, first compound 0.1 µM) 36.8% | viability, T/C (second compound 0.000949 µM, first compound 0.316 µM) 56.3% | viability, T/C (second compound 0.000949 µM, first compound 1 µM) 72.7% | viability, T/C (second compound 0.003 µM, first compound 0.0316 µM) 23.8% | viability, T/C (second compound 0.003 µM, first compound 0.1 µM) 24.9% | viability, T/C (second compound 0.003 µM, first compound 0.316 µM) 32.9% | viability, T/C (second compound 0.003 µM, first compound 1 µM) 38.9% | viability, T/C (second compound 0.003 µM, first compound 3.16 µM) 3.26% | viability, T/C (second compound 0.00949 µM, first compound 0.0316 µM) 15.9% | viability, T/C (second compound 0.00949 µM, first compound 0.1 µM) 21.2% | viability, T/C (second compound 0.00949 µM, first compound 0.316 µM) 23.5% | viability, T/C (second compound 0.00949 µM, first compound 1 µM) 35.6% | viability, T/C (second compound 0.00949 µM, first compound 3.16 µM) 2.54% | viability, T/C (second compound 0.03 µM, first compound 0.0316 µM) 14.5% | viability, T/C (second compound 0.03 µM, first compound 0.1 µM) 14.5% | viability, T/C (second compound 0.03 µM, first compound 0.316 µM) 20.1% | viability, T/C (second compound 0.03 µM, first compound 1 µM) 30.4% | viability, T/C (second compound 0.03 µM, first compound 3.16 µM) 2.68% | viability, T/C (second compound 0.0949 µM, first compound 0.0316 µM) 8.49% | viability, T/C (second compound 0.0949 µM, first compound 0.1 µM) 11.9% | viability, T/C (second compound 0.0949 µM, first compound 0.316 µM) 15.1% | viability, T/C (second compound 0.0949 µM, first compound 1 µM) 30.3% | viability, T/C (second compound 0.0949 µM, first compound 3.16 µM) 3.16% | viability, T/C (second compound 0.0949 µM, first compound 10 µM) 6.24% | viability, T/C (second compound 0.3 µM, first compound 0.0316 µM) 8.25% | viability, T/C (second compound 0.3 µM, first compound 0.1 µM) 12.6% | viability, T/C (second compound 0.3 µM, first compound 0.316 µM) 14.8% | viability, T/C (second compound 0.3 µM, first compound 1 µM) 25.4% | viability, T/C (second compound 0.3 µM, first compound 3.16 µM) 2.42% | viability, T/C (second compound 0.3 µM, first compound 10 µM) 4.74%
< 31.6 nM: IC50 (second compound 0.003 µM) | IC50 (second compound 0.00949 µM) | IC50 (second compound 0.03 µM) | IC50 (second compound 0.0949 µM) | IC50 (second compound 0.3 µM)
1050 nM: IC50 (second compound 0.000949 µM)
active: viability, T/C (second compound 0.000949 µM, first compound 3.16 µM) 3.44% | viability, T/C (second compound 0.000949 µM, first compound 10 µM) 5.24% | viability, T/C (second compound 0.003 µM, first compound 10 µM) 6.21% | viability, T/C (second compound 0.00949 µM, first compound 10 µM) 5.71% | viability, T/C (second compound 0.03 µM, first compound 10 µM) 6.01%
